Experiments:
MDA-MB-231 [1] = assay: Cytotoxicity against human MDA-MB-231 cells assessed as cell growth inhibition after 72 hrs by MTT assay; format: functional, cell-based; details: MDA-MB-231, 72 h
Raji = assay: Cytotoxicity against human Raji cells assessed as cell growth inhibition after 72 hrs by MTT assay; format: functional, cell-based
HeLa = assay: Cytotoxicity against human HeLa cells assessed as cell growth inhibition after 72 hrs by MTT assay; format: functional, cell-based
MRC5 = assay: Cytotoxicity against human MRC5 cells assessed as cell growth inhibition after 72 hrs by MTT assay; format: functional, cell-based; details: MRC5, 72 h
Jurkat = assay: Cytotoxicity against human Jurkat cells assessed as cell growth inhibition after 72 hrs by MTT assay; format: functional, cell-based
[2] = Cytotoxicity against human HL60 cells assessed as cell growth inhibition after 72 hrs by MTT assay; format: functional, cell-based; details: HL-60, 72 h
MCF7 = assay: Cytotoxicity against human MCF7 cells assessed as cell growth inhibition after 72 hrs by MTT assay; format: functional, cell-based; details: MCF7, 72 h
K562 = assay: Cytotoxicity against human K562 cells assessed as cell growth inhibition after 72 hrs by MTT assay; format: functional, cell-based; details: K562, 72 h
A549 [3] = assay: Cytotoxicity against human A549 cells assessed as cell growth inhibition after 72 hrs by MTT assay; format: functional, cell-based; details: A549, 72 h
A549 [4] = assay: Potency index, ratio of Doxorubicin IC50 to ratio of compound IC50 for human A549 cells; format: functional
MDA-MB-231 [5] = assay: Potency index, ratio of Doxorubicin IC50 to ratio of compound IC50 for human MDA-MB-231 cells; format: functional

SMILES | IC50 (MDA-MB-231 [1]) [µM] | IC50 (Raji) [µM] | IC50 (HeLa) [µM] | IC50 (MRC5) [µM] | IC50 (Jurkat) [µM] | IC50 [2] [µM] | IC50 (MCF7) [µM] | IC50 (K562) [µM] | IC50 (A549 [3]) [µM] | Ratio IC50 (A549 [4]) | Ratio IC50 (MDA-MB-231 [5])
COc1cccc(C(=O)OC[C@@H](OC(C)=O)[C@H]2OC(=O)C=C[C@H]2OC(C)=O)c1 | 7.46 | 25.6 | 1.95 | 91.3 | 8.31 | 0.89 | 4.71 | 2.69 | 11 | – | –
CC(=O)O[C@@H]1C=CC(=O)O[C@@H]1[C@@H](COC(=O)/C=C/c1ccccc1)OC(C)=O | 1.46 | 11.2 | 0.21 | > 100 | 0.25 | 24.6 | 16 | 0.28 | 2.02 | 2.5 | –
CC(=O)O[C@@H]1C=CC(=O)O[C@@H]1[C@@H](COC(=O)c1c(Cl)cc(Cl)cc1Cl)OC(C)=O | 0.02 | 11.2 | 14 | 45.7 | 6.25 | 36.2 | 0.62 | 1.02 | 4.23 | – | 4.5
COc1cccc2c1C(=O)c1c(O)c3c(c(O)c1C2=O)C[C@@](O)(C(=O)CO)C[C@@H]3O[C@H]1C[C@H](N)[C@H](O)[C@H](C)O1 [DOXORUBICIN] | – | – | – | – | – | 0.92 | – | – | – | – | –
CC(=O)O[C@@H]1C=CC(=O)O[C@@H]1[C@@H](COC(=O)c1ccccc1)OC(C)=O | 2.25 | 36.9 | 7.32 | > 100 | 14.2 | 1.21 | 26.1 | 7.65 | 16.3 | – | –

From ChEMBL document CHEMBL3813607, “New antitumour agents with α,β-unsaturated δ-lactone scaffold: Synthesis and antiproliferative activity of (-)-cleistenolide and analogues” (Bioorg Med Chem Lett, 2016)
